Experiments:
[1] = Anti-HCMV cytopathogenicity test, cytostatic effect on uninfected cells; assay type: cell-based; conditions: human, NHDF cells (human prepuce fibroblasts), 6 days incubation, visual assessment
Description: (§1) Anti-HCMV (Anti-Human Cytomegalovirus) Cytopathogenicity Tests The test compounds are employed as 50 millimolar (mM) solutions in dimethyl sulfoxide (DMSO). Ganciclovir® serves as reference compound. After the addition of 2 μl of the 50, 5, 0.5 and 0.05 mM DMSO stock solutions respectively to 98 μl portions of cell culture medium in row […] for duplicate determinations, 1:2 dilutions are carried out with 50 μl portions of medium up to row 11 of the 96-well plate. The wells in rows 1 and 12 each contain 50 μl of medium. 150 μl of a suspension of 1×10^4 cells (human prepuce fibroblasts [NHDF]) are then pipetted into each of the wells (row 1=cell control) and, in rows 2-12, a mixture of HCMV-infected and uninfected NHDF cells (M.O.I.=0.001-0.003), i.e. 1-3 infected cells per 1000 uninfected cells. Row 12 (without substance) serves as virus control. The final test concentrations are […]. The plates are incubated at 37° C./5% CO2 for 6 days, i.e. until all the cells in the virus controls are infected (100% cytopathogenic effect [CPE]). The wells are then fixed and stained by the addition of a mixture of formalin and Giemsa's dye (30 min), washed with bidistilled water and dried in a drying oven at 50° C. The plates are then assessed visually using an overhead microscope (plaque multiplier from Technomara). The following data can be obtained from the test plates: CC50 (NHDF)=substance concentration in MM at which no visible cytostatic effects on the cells are evident in comparison with the untreated cell control;

HCMV = test: Anti-HCMV cytopathogenicity test (CPE inhibition); assay type: cell-based, human cytomegalovirus; conditions: for EC50: Human betaherpesvirus 5, 144 h, HCMV-infected NHDF cells, M.O.I. 0.001-0.003, 6 days, inhibition of CPE by 50%; for SI HCMV: selectivity index = CC50 (NHDF)/EC50 (HCMV)
Description: as §1, with “plates: EC50 (HCMV)=substance” for “plates: CC50 (NHDF)=substance”, “MM” for “MM at”, “which inhibits” for “which no visible cytostatic effects on”, “the CPE (cytopathic effect) by 50%” for “the cells are evident”, “untreated virus” for “untreated cell”, “control; SI (selectivity index)=CC50 (NHDF)/EC50 (HCMV).” for “control;”

[2] = Pharmacokinetical investigations after intravenous or oral administration; assay type: in vivo; conditions: male Wistar rat
Description: Pharmacokinetical Investigations
The pharmacokinetics of the active substances are investigated after intravenous or oral administration of doses in the range from 1 mg/kg intravenously and 3 mg/kg orally to three male Wistar rats per administration route. In order to make a repeated removal of blood possible a catheter is implanted into the jugular vein of the animals on the day before the experiment. The substances are administered intravenously as well as orally as a solution. Thereby, in most cases a plasma formulation (rat plasma with 1-2% ethanol or DMSO, 2 ml/kg) is used for the intravenous administration and a PEG formulation (10% ethanol, 40% PEG 400, 50% water, 5 ml/kg) is used for the oral administration.
After the administration of the active substance blood samples are collected over 24 h via the catheter into heparin-containing sample tubes. Subsequently to the removal of blood the blood samples are centrifuged and the plasma supernatant is pipetted into Eppendorf tubes. The plasma samples are stored at least −15° C. until the analysis takes place.
For the work-up the samples are thawed. The plasma proteins are subsequently precipitated by the addition of acetonitrile which comprises an internal standard. As internal standard a substance from the same structural class is selected which is structurally as similar as possible to the active compound. For the preparation of calibration samples different concentrations of the active substance are added to aliquots of empty plasma and these are worked up together with the unknown samples. Additionally quality control samples with three different concentrations are prepared which serve to validate the analytical procedure.
The determination of the active substance in the samples takes place by high performance liquid chromatography with mass spectrometrical detection (LC/MS-MS). The active substance concentrations in the unknown samples are determined based on their relative peak heights or areas compared to the calibration curve using the program Concalc for Windows (CCW, Integrierte Labordatensysteme, version 2.5 or later, Bayer AG). Subsequently, the pharmacokinetical parameters are calculated from the plasma concentration development over time individualized to an animal using non-compartimental analysis with the aid of the program KINCALC, version 2.50.02 (Bayer AG, 2001).
The following data can be acquired from these tests:
AUC=total area under the drug-concentration over time curve;
Cmax=maximum concentration;

[3] = 3 mg/kg p.o., solution in 10% ethanol, 40% PEG 400, 50% water, 5 ml/kg

| Compound | CC50 at 6 days [1] | EC50 (HCMV) | SI HCMV (HCMV) | half-life ([2]; iv, 1.3 mg/kg i.v., solution in rat plasma with 1% DMSO, 2 ml/kg) | clearance ([2]; iv, 1.3 mg/kg i.v., solution in rat plasma with 1% DMSO, 2 ml/kg, read-out: CLPlasma (converted)) | Vd ([2]; iv, 1.3 mg/kg i.v., solution in rat plasma with 1% DMSO, 2 ml/kg, read-out: Vss) | CLBlood ([2]; 1.3 mg/kg i.v., solution in rat plasma with 1% DMSO, 2 ml/kg) | AUCnorm, p.o. [2, 3] | Cmax, norm, p.o. [2, 3] | bioavailability ([2]; plasma, po, 3 mg/kg p.o., solution in 10% ethanol, 40% PEG 400, 50% water, 5 ml/kg, read-out: F (bioavailability)) |
| --- | --- | --- | --- | --- | --- | --- | --- | --- | --- | --- |
| N#CC1(C(=O)Nc2cc(F)cc(NS(=O)(=O)c3ccc(-c4noc(-c5cccc(N)n5)n4)cc3)c2)CC1 [Example 1, N-{3-[({4-[5-(6-Aminopyridin-2-yl)-1,2,4-oxadiazol-3-yl]phenyl}sulfonyl)amino]-5-fluorophenyl}-1-cyanocyclopropanecarboxamide] | 71 µM | 0.011 µM | 6450 | 4.26 h | 1.07 mL/min/kg | 0.321 L/kg | 2.13 mL/min/kg | 8.58 kg·h/L | 1.08 kg/L | 55.3% |
| Cl.N#CC1(C(=O)Nc2cccc(NS(=O)(=O)c3ccc(C#Cc4cccc(N)n4)cc3)c2)CC1 [Example 4, N-{3-[({4-[(6-Aminopyridin-2-yl)ethynyl]phenyl}sulfonyl)amino]phenyl}-1-cyanocyclopropanecarboxamide Hydrochloride] | 47 µM | 0.021 µM | 2240 |  |  |  |  |  |  |  |
| Cc1c(NC(=O)C2(C#N)CC2)cccc1NS(=O)(=O)c1ccc(-c2noc(-c3cccc(N)n3)n2)cc1 [Example 3, N-{3-[({4-[5-(6-Aminopyridin-2-yl)-1,2,4-oxadiazol-3-yl]phenyl}sulfonyl)amino]-2-methylphenyl}-1-cyanocyclopropanecarboxamide] | 102 µM | 0.002 µM | 51000 |  |  |  |  |  |  |  |
| N#CC1(C(=O)Nc2cccc(NS(=O)(=O)c3ccc(-c4noc(-c5cccc(N)n5)n4)cc3)c2)CC1 [Example 2, N-{3-[({4-[5-(6-Aminopyridin-2-yl)-1,2,4-oxadiazol-3-yl]phenyl}sulfonyl)amino]phenyl}-1-cyanocyclopropanecarboxamide] | 141 µM | 0.007 µM | 20140 |  |  |  |  |  |  |  |
| CC(=O)Nc1cccc(-c2nc(-c3ccc(S(=O)(=O)Nc4cc(F)cc(NC(=O)C5(C#N)CC5)c4)cc3)no2)n1 [Example 5, N-{3-[({4-[5-(6-Acetylaminopyridin-2-yl)-1,2,4-oxadiazol-3-yl]phenyl}sulfonyl)amino]-5-fluorophenyl}-1-cyanocyclopropanecarboxamide] | 71 µM | 0.026 µM | 2730 |  |  |  |  |  |  |  |

— patent US8318761B2, “Substituted arylsulfonamides as antiviral agents” (Aicuris GmbH & Co. KG, priority 2006, dated 2012)
